Source: BindingDB's records for doi:10.1021/jm0609622 (Schering-Plough Research Institute, 2006)

Experiment: Inhibition of CXCL1-induced human neutrophil chemotaxis

Structure (SMILES)	IC50 [nM]
Cc1ccc([C@@H](C)Nc2c(Nc3cccc(C(=O)N(C)C)c3O)c(=O)c2=O)o1 [(R)-2-hydroxy-N,N-dimethyl-3-(2-(1-(5-methylfuran-2-yl)ethylamino)-3,4-dioxocyclobut-1-enylamino)benzamide]	2.4
CC[C@@H](Nc1c(Nc2cccc(C(=O)N(C)C)c2O)c(=O)c1=O)c1ccccc1 [(R)-3-(3,4-dioxo-2-(1-phenylpropylamino)cyclobut-1-enylamino)-2-hydroxy-N,N-dimethylbenzamide]	48
